IC50 data for 21 molecules are collected here from patent US20220009920A1 (GB005, Inc., priority 2020, published 2022).

In one test the target is T1, BTK (Homo sapiens, UniProt Q06187).
T1 construct: purchased Cama
Put plainly: Assay to determine activity against BTK. The format is biochemical. Particulars: 1 mM ATP, 2 nM BTK, 90 minutes at room temperature. The procedure:
Solutions of compounds (test or control) in DMSO were prepared at the desired concentrations, and serially diluted to 11 concentrations by 3-fold dilution in 384pp-plate using TECAN EVO200. 20 nL of stock were transferred to 384 plate using Echo550. DMSO was used as vehicle control.
(BTK was obtained from Cama; FLPeptide2 was obtained from PerkinElmer and Ibrutinib was obtained from Selleck.) 5 μL of ATP solution were added to each well, followed by addition of 15 μL of BTK solution to initiate the reaction. (Note the final volume of each well was 20 μL containing MgCl2 (10 mM), Brij-35 (0.01%), DTT (2 mM), BSA (0.05%), EGTA (1 mM), HEPE (pH7.5) (50 mM), FLPeptide (1.5 uM), ATP (1 mM) and BTK (2 nM).
The plates were incubated at room temperature for 90 minutes and then stopping buffer added (75 μL, containing 0.5 M EDTA) to terminate the reaction. Samples from each well were analyzed using EZ reader. The % remaining activity was calculated using read conversion ratio (CR) according to the equation: […]
XLFit (equation 201) was used to calculate IC50's by floating both bottom and top.

Another test has as its system BTK in RAMOS B cells. Put plainly: Assay to determine BTK activity in RAMOS B cells (anti-IgM, FLIPR Calcium 6). The format is cell-based. Particulars: anti-IgM EC80, calcium readout. The procedure:
On the day before assay, Ramos B cells were plated in plating medium (RPMI1640 medium containing 1% FBS and 1× pencillin-streptomycin). On the day of the assay, 2× dye solution was prepared following the manual of the FLIRP Calcium 6 Assay Kit: Dilute the dye with assay buffer (20 mM HEPES in IX HBSS, pH7.4); Add probenecid to the final concentration of 5 mM; vortex vigorously for 1-2 minutes. Cells were collected by centrifuging, and the pellet was re-suspended in plating medium. After counting, cells were re-suspended at a density of 3×10^6/ml in plating medium. Equal volume of 2× dye solution was added to the cell suspension. Cells were then plated at 20 μl/well into a 384-well poly-D-lysine coated plate. Plate was centrifuged at 1000 rpm for 3 minutes and then incubated at 37° C. for 2 hours followed by an additional 15-minute incubation at 25° C. Compounds were prepared at 3× concentration in dilution buffer (20 mM HEPES and 0.1% BSA in 1×HBSS, pH 7.4). Serially diluted compound was transferred from source plate to a 384-well compound plate by using an Echo 550 (Labcyte). 20 μl/well compound dilution buffer was added to the compound plate and mixed on plate shaker for 2 mins. 4× EC80 of Anti-IgM (Jackson ImmunoResearch) was prepared in dilution buffer and 20 μl/well was added to a new 384-well compound plate. After 60 mins of incubation at 25° C. in the dark; cell plate, compound plate containing 4×EC80 of anti-IgM and FLIPR tips were placed into FLIPR (Molecular Devices). 10 ul/well of 4×EC80 anti-IgM was transferred to the cell plate by FLIPR. Plates were read for 160 sec with 1 sec interval.

T1 sequence (Q06187 whole entry): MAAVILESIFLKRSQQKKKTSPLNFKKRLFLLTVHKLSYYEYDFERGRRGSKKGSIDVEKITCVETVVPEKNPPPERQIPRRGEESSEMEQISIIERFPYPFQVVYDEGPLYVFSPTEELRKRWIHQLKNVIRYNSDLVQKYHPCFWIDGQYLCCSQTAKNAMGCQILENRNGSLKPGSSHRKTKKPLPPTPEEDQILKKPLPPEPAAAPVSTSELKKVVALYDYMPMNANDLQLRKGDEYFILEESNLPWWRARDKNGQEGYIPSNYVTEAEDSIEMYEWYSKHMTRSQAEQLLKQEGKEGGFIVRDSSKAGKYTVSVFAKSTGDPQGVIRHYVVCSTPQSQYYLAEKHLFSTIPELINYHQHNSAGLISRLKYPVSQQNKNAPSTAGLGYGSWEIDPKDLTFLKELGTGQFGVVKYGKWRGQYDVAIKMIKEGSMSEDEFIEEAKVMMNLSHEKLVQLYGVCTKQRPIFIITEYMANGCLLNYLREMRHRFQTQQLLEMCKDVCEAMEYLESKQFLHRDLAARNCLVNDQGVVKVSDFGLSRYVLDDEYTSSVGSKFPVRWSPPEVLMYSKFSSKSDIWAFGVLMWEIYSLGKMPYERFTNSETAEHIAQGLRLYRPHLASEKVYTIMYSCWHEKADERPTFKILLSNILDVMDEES

Take `C=CC(=O)N1CCc2c(cccc2-c2c(F)cc(C(N)=O)c3[nH]c4c(c23)CS(=O)(=O)CC4)C1` (single isomer, unassigned) [Compound 9-3, 9-(2-acryloyl-1,2,3,4-tetrahydroisoquinolin-5-yl)-8-fluoro-1,3,4,5-tetrahydrothiopyrano[4,3-b]indole-6-carboxamide 2,2-dioxide]: the IC50 (usually the point on the concentration scale where inhibition reaches its midpoint) against BTK was under 10 nM; in the test on BTK in RAMOS B cells it was 10 to 100 nM.

`C=CC(=O)N1CCc2c(-c3c(F)cc(C(N)=O)c4[nH]c5c(c34)CC3(CC5)CC3)cccc2[C@@H]1C` (atropisomer, axis not shown) [Compound 7-21, (R)-5-((S)-2-acryloyl-1-methyl-1,2,3,4-tetrahydroisoquinolin-5-yl)-6-fluoro-1,2,4,9-tetrahydrospiro[carbazole-3,1′-cyclopropane]-8-carboxamide]: the IC50 is under 10 nM at BTK and 10 to 100 nM in the test with BTK in RAMOS B cells (Homo sapiens, Ramos).

Consider `C=CC(=O)N1CCc2c(cccc2-c2cnc(C(N)=O)c3[nH]c4c(c23)CC(F)(F)CC4)C1` [Compound 7-29, 4-(2-acryloyl-1,2,3,4-tetrahydroisoquinolin-5-yl)-6,6-difluoro-6,7,8,9-tetrahydro-5H-pyrido[3,4-b]indole-1-carboxamide], for which the IC50 on BTK lay in the range of 10 to 100 nM; in the test on BTK in RAMOS B cells (Homo sapiens, Ramos) it was 10 to 100 nM.

`C=CC(=O)N1CCc2c(cccc2-c2c(C)nc(C(N)=O)c3[nH]c4c(c23)CCCC4)C1` (single isomer, unassigned) [Compound 2-6, 4-(2-acryloyl-1,2,3,4-tetrahydroisoquinolin-5-yl)-3-methyl-6,7,8,9-tetrahydro-5H-pyrido[3,4-b]indole-1-carboxamide]: the 50% inhibitory concentration (IC50) against BTK is under 10 nM; with BTK in RAMOS B cells it was 10 to 100 nM.

For `C=CC(=O)N1CCc2c(cccc2-c2c(F)cc(C(N)=O)c3[nH]c4c(c23)CS(=O)(=O)CC4)C1` (single isomer, unassigned) [Compound 9-4, 9-(2-acryloyl-1,2,3,4-tetrahydroisoquinolin-5-yl)-8-fluoro-1,3,4,5-tetrahydrothiopyrano[4,3-b]indole-6-carboxamide 2,2-dioxide], the IC50 on BTK and with BTK in RAMOS B cells was at least 100 nM throughout.

With `C=CC(=O)N1CCC=C(c2ncc(C(N)=O)c3[nH]c4c(c23)CCCC4)C1` [Compound 3-2, 1-(1-acryloyl-1,2,5,6-tetrahydropyridin-3-yl)-6,7,8,9-tetrahydro-5H-pyrido[4,3-b]indole-4-carboxamide], the half-maximal inhibitory concentration (IC50) is under 10 nM at BTK and under 10 nM in the test with BTK in RAMOS B cells (Homo sapiens, Ramos).

On to `C=CC(=O)N1CCC=C(c2ccc(C(N)=O)c3[nH]c4c(c23)CC2(CCCO2)CC4)C1` (stereo not drawn) [Compound 7-6, 5-(1-acryloyl-1,2,5,6-tetrahydropyridin-3-yl)-1,2,4,4′,5′,9-hexahydro-3′H-spiro[carbazole-3,2′-furan]-8-carboxamide], for which the 50% inhibitory concentration (IC50) against BTK is at least 100 nM; in the test on BTK in RAMOS B cells (Homo sapiens, Ramos) it was at least 100 nM.

As to `CC#CC(=O)N[C@@H]1C=C(c2c(F)cc(C(N)=O)c3[nH]c4c(c23)CCC4)CCC1` [Compound 10-3, 8-[(3 S)-3-(but-2-ynoylamino)cyclohexen-1-yl]-7-fluoro-1,2,3,4-tetrahydrocyclopenta[b]indole-5-carboxamide], the half-inhibitory concentration (IC50) against BTK was under 10 nM; in the test with BTK in RAMOS B cells (Homo sapiens, Ramos), under 10 nM.

With `C=CC(=O)N[C@H]1C[C@H](F)CN(c2c(F)cc(C(N)=O)c3[nH]c4c(c23)CC2(CC4)CC2)C1` [Compound 7-22, 5-((3S,5S)-3-acrylamido-5-fluoropiperidin-1-yl)-6-fluoro-1,2,4,9-tetrahydrospiro[carbazole-3,1′-cyclopropane]-8-carboxamide], the IC50 at BTK was in the range of 10 to 100 nM; in the test on BTK in RAMOS B cells (Homo sapiens, Ramos), 10 to 100 nM.

On to `C=CC(=O)N1CCc2c(cccc2-c2c(F)cc(C(N)=O)c3[nH]c4c(c23)CC2(CCCO2)CC4)C1` (stereo not drawn) [Compound 7-16, 5-(2-acryloyl-1,2,3,4-tetrahydroisoquinolin-5-yl)-6-fluoro-1,2,4,4′,5′,9-hexahydro-3′H-spiro[carbazole-3,2′-furan]-8-carboxamide], for which the IC50 is under 10 nM against BTK and 10 to 100 nM with BTK in RAMOS B cells.

Consider `C=CC(=O)N1CCC=C(c2ccc(C(N)=O)c3[nH]c4c(c23)CC2(CCCC2)CC4)C1` [Compound 7-5, 5-(1-acryloyl-1,2,5,6-tetrahydropyridin-3-yl)-1,2,4,9-tetrahydrospiro[carbazole-3,1′-cyclopentane]-8-carboxamide], for which the IC50 against BTK fell in the range of 10 to 100 nM; in the test with BTK in RAMOS B cells (Homo sapiens, Ramos), 10 to 100 nM.

`C=CC(=O)N1CCc2c(cccc2-c2c(F)cc(C(N)=O)c3[nH]c4c(c23)CC2(CCCC2)CC4)C1` [Compound 7-14, 5-(2-acryloyl-1,2,3,4-tetrahydroisoquinolin-5-yl)-6-fluoro-1,2,4,9-tetrahydrospiro[carbazole-3,1′-cyclopentane]-8-carboxamide]: the IC50 on BTK is at least 100 nM; with BTK in RAMOS B cells (Homo sapiens, Ramos), at least 100 nM.

Take `C=CC(=O)N1CCC=C(c2ccc(C(N)=O)c3[nH]c4c(c23)CC2(CC4)CC2)C1` [Compound 7-1, 4-(1-prop-2-enoyl-3,6-dihydro-2H-pyridin-5-yl)spiro[5,7,8,9-tetrahydro-carbazole-6,1′-cyclopropane]-1-carboxamide]: the half-inhibitory concentration (IC50) on BTK was in the range of 10 to 100 nM; in the test with BTK in RAMOS B cells (Homo sapiens, Ramos), 10 to 100 nM.

For `C=CC(=O)N[C@H]1CCCN(c2ncc(C(N)=O)c3[nH]c4c(c23)CCCC4)C1` [Compound 3-4, (S)-1-(3-acrylamidopiperidin-1-yl)-6,7,8,9-tetrahydro-5H-pyrido[4,3-b]indole-4-carboxamide], the half-inhibitory concentration (IC50) at BTK was at least 100 nM; with BTK in RAMOS B cells (Homo sapiens, Ramos), at least 100 nM.

Turning to `C=CC(=O)N1CCc2c(cccc2-c2c(F)cc(C(N)=O)c3[nH]c4c(c23)CCN(C)CC4)C1` [Compound 9-6, 10-(2-acryloyl-1,2,3,4-tetrahydroisoquinolin-5-yl)-9-fluoro-3-methyl-1,2,3,4,5,6-hexahydroazepino[4,5-b]indole-7-carboxamide], the IC50 against BTK was in the range of 10 to 100 nM; in the test with BTK in RAMOS B cells (Homo sapiens, Ramos), 10 to 100 nM.

As to `C=CC(=O)N1CCC=C(c2ccc(C(N)=O)c3[nH]c4c(c23)CC2(CC4)OCCO2)C1` [Compound 6-1, 4′-(1-prop-2-enoyl-3,6-dihydro-2H-pyridin-5-yl)spiro[1,3-dioxolane-2,6′-5,7,8,9-tetrahydrocarbazole]-1′-carboxamide], the IC50 against BTK was 10 to 100 nM; in the test with BTK in RAMOS B cells (Homo sapiens, Ramos) it was 10 to 100 nM.

In the case of `C=CC(=O)N1CCCC(c2c(F)cc(C(N)=O)c3[nH]c4c(c23)CCCCC4)C1` (racemic) [Compound 5-5, 1-(1-acryloylpiperidin-3-yl)-2-fluoro-5,6,7,8,9,10-hexahydrocyclohepta[b]indole-4-carboxamide], the IC50 against BTK is 10 to 100 nM; in the test with BTK in RAMOS B cells (Homo sapiens, Ramos), 10 to 100 nM.

In the case of `C=CC(=O)N1CCc2c(cccc2-c2c(F)cc(C(N)=O)c3[nH]c4c(c23)CC2(CCCO2)CC4)C1` (stereo not drawn) [Compound 7-15, 5-(2-acryloyl-1,2,3,4-tetrahydroisoquinolin-5-yl)-6-fluoro-1,2,4,4′,5′,9-hexahydro-3′H-spiro[carbazole-3,2′-furan]-8-carboxamide], the values for the IC50 against BTK and in the test on BTK in RAMOS B cells were 10 to 100 nM and at least 100 nM, respectively.

Consider `C=CC(=O)N1CCc2c(-c3c(F)cc(C(N)=O)c4[nH]c5c(c34)CC3(CC5)CC3)cccc2[C@@H]1C` (atropisomer, axis not shown) [Compound 7-20, 5-((S)-2-acryloyl-1-methyl-1,2,3,4-tetrahydroisoquinolin-5-yl)-6-fluoro-1,2,4,9-tetrahydrospiro[carbazole-3,1′-cyclopropane]-8-carboxamide], for which the concentration for half-maximal inhibition (IC50) against BTK is at least 100 nM; in the test on BTK in RAMOS B cells (Homo sapiens, Ramos), at least 100 nM.

Consider `C=CC(=O)N1CCc2c(cccc2-c2c(C)nc(C(N)=O)c3[nH]c4c(c23)CCCC4)C1` (single isomer, unassigned) [Compound 2-7, 4-(2-acryloyl-1,2,3,4-tetrahydroisoquinolin-5-yl)-3-methyl-6,7,8,9-tetrahydro-5H-pyrido[3,4-b]indole-1-carboxamide], for which the concentration for half-maximal inhibition (IC50) on BTK and in the test with BTK in RAMOS B cells was at least 100 nM each time.

Consider `C=CC(=O)N1CCC[C@H](c2c(F)cc(C(N)=O)c3[nH]c4c(c23)CCC4)C1` [Compound 10-1, (R)-8-(1-acryloylpiperidin-3-yl)-7-fluoro-1,2,3,4-tetrahydrocyclopenta[b]-indole-5-carboxamide], for which the concentration for half-maximal inhibition (IC50) at BTK is under 10 nM; in the test on BTK in RAMOS B cells (Homo sapiens, Ramos) it was under 10 nM.
